Data published in patent US4486434A, “Histamine H1 -antagonists” (Smith Kline & French Laboratories Limited, priority 1981, dated 1984).

Assay: rat whole body radiography
Format: in vivo
From the text: This has been shown by rat whole body radiography.

SMILES: Cc1ccc(Cc2cnc(NCCCCc3ncc(Br)cc3C)[nH]c2=O)cn1 [Example 1, 2-[4-(5-bromo-3-methylpyrid-2-yl)-butylamino]-5-(6-methylpyrid-3-yl-methyl)-4-pyrimidone]
- entry into the central nervous system: does not enter the central nervous system
